Inhibition and EC50 data for five compounds are collected here from ChEMBL document CHEMBL5150039 (Bioorg Med Chem, 2022).

SMILES strings stand for the structures.

Experiment [1] addresses T1, Solute carrier family 22 member 12 (Homo sapiens, UniProt Q96S37).
T1 sequence (Q96S37 whole entry): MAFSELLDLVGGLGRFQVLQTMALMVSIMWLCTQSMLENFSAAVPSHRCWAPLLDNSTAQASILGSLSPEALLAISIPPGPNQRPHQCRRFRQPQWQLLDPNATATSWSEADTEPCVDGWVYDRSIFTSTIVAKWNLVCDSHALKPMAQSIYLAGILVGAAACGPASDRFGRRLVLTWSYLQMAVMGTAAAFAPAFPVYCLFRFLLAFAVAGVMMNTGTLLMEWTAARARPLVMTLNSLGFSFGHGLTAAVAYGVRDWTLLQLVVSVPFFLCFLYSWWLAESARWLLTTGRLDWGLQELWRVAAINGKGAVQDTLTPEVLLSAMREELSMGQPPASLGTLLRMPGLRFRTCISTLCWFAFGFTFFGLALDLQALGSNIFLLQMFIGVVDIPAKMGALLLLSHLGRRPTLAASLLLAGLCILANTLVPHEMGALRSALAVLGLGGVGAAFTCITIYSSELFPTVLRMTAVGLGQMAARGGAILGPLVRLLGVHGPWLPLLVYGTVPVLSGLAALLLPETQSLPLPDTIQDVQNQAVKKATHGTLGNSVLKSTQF
Particulars: HEK293, human, 8 min, read-out: INH.

Experiment [2] has as its target T1, Solute carrier family 22 member 12. The conditions noted are these: HEK293, human, 8 min, read-out: INH. This is another data set of the same source.
Description: Inhibition of URAT1 in human HEK293 cells assessed as inhibition of uric acid uptake at 1000 nM incubated for 8 mins by Microbeta scintillation counting analysis
For experiment [3] the target is unchanged. Particulars: HEK293, human, 8 min, read-out: INH. This is another data set of the same source.
Description: Inhibition of URAT1 in human HEK293 cells assessed as inhibition of uric acid uptake at 100 nM incubated for 8 mins by Microbeta scintillation counting analysis
The next experiment concerns the target T2, Bile acid receptor (Homo sapiens, UniProt Q96RI1).
T2 sequence (Q96RI1 whole entry): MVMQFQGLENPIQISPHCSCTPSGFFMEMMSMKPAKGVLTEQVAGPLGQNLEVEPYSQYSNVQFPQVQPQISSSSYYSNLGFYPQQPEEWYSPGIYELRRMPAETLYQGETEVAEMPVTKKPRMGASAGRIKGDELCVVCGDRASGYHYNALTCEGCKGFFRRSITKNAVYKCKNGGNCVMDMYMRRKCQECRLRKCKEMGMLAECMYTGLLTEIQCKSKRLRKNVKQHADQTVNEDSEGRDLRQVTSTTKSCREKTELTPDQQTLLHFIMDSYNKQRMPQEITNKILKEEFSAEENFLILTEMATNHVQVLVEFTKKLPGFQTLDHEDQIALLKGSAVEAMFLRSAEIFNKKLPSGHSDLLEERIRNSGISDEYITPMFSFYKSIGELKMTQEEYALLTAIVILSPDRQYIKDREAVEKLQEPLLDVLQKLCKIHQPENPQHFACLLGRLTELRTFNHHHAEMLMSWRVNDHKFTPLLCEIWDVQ
Briefly: Agonist activity at FXR (unknown origin) expressed in human HepG2 cells co-transfected with human RXR incubated for 24 hrs by cell-based luciferase transactivation assay.

As usually defined, the EC50 is the concentration giving half of the maximal effect. A high value points to a need for much substance.

Turning to `CCc1oc2ccccc2c1C(=O)c1cc(Br)c(OCCCC(=O)O)c(Br)c1`, the inhibition at 0.3 µM in experiment [1] was 23%. The inhibition at 1 µM in experiment [2] came to 45%. Besides, the inhibition at 0.1 µM in experiment [3] is 6%.
On to `CCc1oc2ccccc2c1C(=O)c1cc(Br)c(OCc2cccc(OCC(=O)O)c2)c(Br)c1`, for which the response on Bile acid receptor was half-maximal at 17.8 µM (EC50). Also, the inhibition at 0.3 µM in experiment [1] is 18%. Further, in experiment [2], the inhibition at 1 µM was 31%. The inhibition at 0.1 µM in experiment [3] was 3%.
`CCc1oc2ccccc2c1C(=O)c1cc(Br)c(OCc2ccc(C(=O)O)cc2)c(Br)c1` showed an EC50 on Bile acid receptor of 10.3 µM. In addition, the inhibition at 0.3 µM in experiment [1] amounted to 8%. Moreover, the inhibition at 1 µM in experiment [2] was found to be 23%. For the same compound, the inhibition at 0.1 µM in experiment [3] was found to be 1%.
Consider `CCc1oc2ccccc2c1C(=O)c1ccc(OCc2cccc(C(=O)O)c2)cc1`, for which the response on Bile acid receptor was half-maximal at 15.6 µM (EC50). Moreover, in experiment [1], the inhibition at 0.3 µM was determined as 3%. Moreover, the inhibition at 1 µM in experiment [2] is 12%. Also, the inhibition at 0.1 µM in experiment [3] came out at 1%.
Consider `CCc1oc2ccccc2c1C(=O)c1cc(Br)c(O)c(Br)c1` [BENZBROMARONE], for which the inhibition at 0.3 µM in experiment [1] was determined as 31%. The inhibition at 1 µM in experiment [2] stood at 72%. In experiment [3], the inhibition at 0.1 µM turned out to be 12%.
